According to paper PMC6934184, “Selective DNA-PKcs inhibition extends the therapeutic index of localized radiotherapy and chemotherapy” (The Journal of Clinical Investigation, 2019):

Biological target: T1, RPS6KA5 (MSK1) (Homo sapiens, UniProt O75582)
T1 construct: purchased Thermo Fisher Scientific (Life Technologies) SelectScreen
Test: SelectScreen Z'LYTE
Assay type: biochemical
Outline: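 Percent values come from Thermo SelectScreen profiling of NU5455, combining activity and binding assays. CSF1R was run in Z'LYTE format at Km app ATP, and CAMK1 in Adapta format with ATP listed at 10.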

T1 sequence (O75582 whole entry): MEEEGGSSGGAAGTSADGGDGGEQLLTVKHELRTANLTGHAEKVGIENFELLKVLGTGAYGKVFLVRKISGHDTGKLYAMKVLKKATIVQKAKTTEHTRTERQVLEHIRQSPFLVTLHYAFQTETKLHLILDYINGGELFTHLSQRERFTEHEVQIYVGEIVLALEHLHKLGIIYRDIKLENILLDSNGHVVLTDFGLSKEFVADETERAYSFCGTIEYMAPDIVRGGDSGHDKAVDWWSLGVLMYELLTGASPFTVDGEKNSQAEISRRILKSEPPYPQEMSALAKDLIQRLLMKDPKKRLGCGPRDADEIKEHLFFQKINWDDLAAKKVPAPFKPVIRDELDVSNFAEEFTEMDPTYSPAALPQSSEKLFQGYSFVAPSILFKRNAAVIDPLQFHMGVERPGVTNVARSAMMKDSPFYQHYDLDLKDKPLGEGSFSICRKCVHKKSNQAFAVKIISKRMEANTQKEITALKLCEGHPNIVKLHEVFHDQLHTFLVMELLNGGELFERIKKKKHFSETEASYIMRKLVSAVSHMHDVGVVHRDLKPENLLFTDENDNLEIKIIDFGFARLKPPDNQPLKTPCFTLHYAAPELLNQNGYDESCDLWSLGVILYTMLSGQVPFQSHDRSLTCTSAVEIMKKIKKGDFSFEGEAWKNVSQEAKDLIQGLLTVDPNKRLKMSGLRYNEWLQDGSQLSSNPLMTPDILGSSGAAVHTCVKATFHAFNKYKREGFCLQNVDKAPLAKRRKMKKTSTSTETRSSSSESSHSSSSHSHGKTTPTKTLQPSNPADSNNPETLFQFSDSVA

In the case of `CN(C(=O)CN1CCOCC1)c1ccc2sc3c(-c4cccc5c(=O)cc(N6CC7CCC(C6)O7)oc45)cccc3c2c1` [NU5455], the inhibition at 1 µM is reported as 7.4%.
